Experimental findings from PubChem BioAssay (NCI) are described below.

Common to all, as to test: NCI anticancer screen, dose series, 48 h
Assay [1] concerns HCT-15 colon.
The test system of assay [2] is HOP-92 NSCLC.
Assay [3] concerns SF-539 CNS.
The subject of assay [4] is 786-0 renal.
For assay [5], the system named is NCI-H226 lung.
Assay [6] relates to SK-OV-3 ovarian.
The test system of assay [7] is SF-295 CNS.
Assay [8] has as its system SNB-19 CNS.
The subject of assay [9] is UACC-257 melanoma.
In assay [10] the test system is U251 CNS.

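Following 48 hours of exposure in 96-well plates, responses at five concentrations were used to interpolate endpoints linearly. GI50 = concentration required for 50% inhibition of growth. Definition used: TGI = concentration required for complete inhibition of growth.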

For the molecule `COC1CCC2C(NS(=O)(=O)c3ccc(C)cc3)CCCC2O1` (stereo not given) (tested in a mixture with another compound), the TGI is more than 34.5 µM in assay [1]; 28 µM in assay [2]; more than 34.5 µM in assay [3]; more than 34.5 µM in [4]; more than 34.5 µM in [5]; more than 34.5 µM in assay [6]. Besides, the TGI in assay [7] was 21.4 µM; in assay [8], more than 34.5 µM; in assay [9], more than 34.5 µM; in assay [10], more than 34.5 µM.

Turning to `CO[C@H](C(=O)[C@@H](O)[C@@H](C)O)[C@@H]1Cc2cc3cc(O[C@H]4C[C@@H](O[C@H]5C[C@@H](O)[C@H](O)C(C)O5)[C@H](O)C(C)O4)c(C)c(O)c3c(O)c2C(=O)[C@H]1O[C@H]1C[C@@H](O[C@H]2C[C@@H](O[C@H]3C[C@](C)(O)C(=O)C(C)O3)[C@@H](O)C(C)O2)[C@H](O)C(C)O1` (stereo not given in full), the GI50 was 0.889 µM in assay [1]; 0.0852 µM in [2]; 0.0473 µM in assay [3]; 0.101 µM in [4]; 0.0457 µM in [5]; 0.139 µM in assay [6]. Moreover, the GI50 was 0.0828 µM in assay [7], 0.0715 µM in assay [8], 0.0995 µM in assay [9] and 0.031 µM in assay [10]. The TGI in [1] was more than 33.2 µM; in assay [2], 0.801 µM; in assay [3], 0.224 µM; in [4] it was 17.1 µM; in [5], 0.3 µM; in [6], more than 33.2 µM. The TGI in [7] is 6.12 µM; in assay [8], more than 33.2 µM; in assay [9] it was 2.27 µM; in assay [10] it was more than 33.2 µM.

`COc1ccc(-c2nc3sccn3c2/C(N)=N/C(=N)N)cc1OC`: the GI50 in [1] is more than 100 µM; in assay [2] it was 56.5 µM; in [3], 25.7 µM; in [4] it was 32.9 µM; in [5], 45.1 µM; in assay [6] it was more than 100 µM. Besides, the GI50 in assay [7] was 30.5 µM; in assay [8], 35.3 µM; in assay [9], 40.7 µM; in assay [10] it was 34.1 µM. Also, the TGI in [1] is more than 100 µM; in assay [2], more than 100 µM; in [3] it was 66 µM; in assay [4], more than 100 µM; in [5] it was more than 100 µM; in assay [6], more than 100 µM. Besides, the TGI in assay [7] is 87.1 µM; in [8], more than 100 µM; in assay [9], more than 100 µM; in assay [10] it was more than 100 µM.

Regarding `CCCCCN(CCCCC)CCCNc1c2c(nc3ccc(Cl)cc13)CCCC2`, the GI50 is 2.58 µM in [1]; 1.19 µM in [2]; 3.6 µM in assay [3]; 3.91 µM in assay [4]; 2.05 µM in assay [5]; 4.08 µM in assay [6]. In addition, the GI50 in [7] is 1.18 µM; in [8], 4.96 µM; in [9], 2.19 µM; in [10], 2.58 µM. The TGI in assay [1] is 11.1 µM; in assay [2] it was 5.63 µM; in [3], 13.2 µM; in assay [4] it was 13.6 µM; in assay [5], 6.71 µM; in [6], 13.8 µM. Further, the TGI was 3.05 µM in assay [7], 18.4 µM in [8], 4.52 µM in assay [9] and 7.37 µM in assay [10].

Consider `Cc1ccc(C(=O)/C(=C/c2ccc([N+](=O)[O-])cc2)SCc2ccc(Cl)cc2)cc1`, for which the GI50 in assay [1] is 0.565 µM; in assay [2] it was 2.86 µM; in assay [3] it was 2.06 µM; in assay [4] it was 1.66 µM; in assay [5], more than 100 µM; in assay [6], 27.4 µM. The GI50 is 1.55 µM in assay [7], 1.17 µM in assay [8], 9.77 µM in assay [9] and 1.11 µM in assay [10]. Further, the TGI in [1] was 2.69 µM; in assay [2] it was 55.2 µM; in assay [3], 4.49 µM; in [4], 3.58 µM; in assay [5], more than 100 µM; in [6], more than 100 µM. Further, the TGI in assay [7] was 3.4 µM; in assay [8] it was 3.02 µM; in assay [9] it was 34.2 µM; in assay [10], 2.4 µM.

In the case of `CC/C=C\CCC/C=C1/C(=O)C=C[C@@H]1C/C=C\CCCC(=O)OC`, the GI50 in assay [1] is 2.1 µM; in assay [2], 9.77 µM; in [3] it was 3.49 µM; in [4] it was 3.74 µM; in assay [5] it was 3.25 µM; in assay [6], 14.9 µM. For the same molecule, the GI50 is 3.1 µM in assay [7], 4.84 µM in assay [8], 7.55 µM in assay [9] and 4.22 µM in assay [10]. Moreover, the TGI came to 5.13 µM in [1]; 23.6 µM in assay [2]; 12.9 µM in assay [3]; 11.4 µM in assay [4]; 9.64 µM in assay [5]; 29.4 µM in assay [6]. Moreover, the TGI in [7] turned out to be 8.75 µM; in [8], 17.7 µM; in assay [9], 20.5 µM; in assay [10] it was 14.5 µM.
